Data: PubChem BioAssay (NCI)
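1) Cells in 96-well plates. 2) Compound, 48 h, 5 concentrations. 3) Linear interpolation between surrounding doses. 4) Unreached endpoint = highest concentration. Abbreviation: GI50, concentration required for 50% inhibition of growth. TGI is the concentration that stops growth completely.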

Assays:
Assay in all cases: NCI anticancer screen, dose series, 48 h
HCT-116 colon = tested on: HCT-116 colon
HL-60(TB) leukemia = tested on: HL-60(TB) leukemia
M14 melanoma = tested on: M14 melanoma
MDA-MB-435 = tested on: MDA-MB-435
PC-3 prostate = tested on: PC-3 prostate
RPMI-8226 leukemia = tested on: RPMI-8226 leukemia
SK-MEL-2 melanoma = tested on: SK-MEL-2 melanoma
SNB-19 CNS = tested on: SNB-19 CNS
SR leukemia = tested on: SR leukemia
UO-31 renal = tested on: UO-31 renal

Row | SMILES | GI50 (HCT-116 colon) | TGI (HCT-116 colon) | GI50 (HL-60(TB) leukemia) | TGI (HL-60(TB) leukemia) | GI50 (M14 melanoma) | TGI (M14 melanoma) | GI50 (MDA-MB-435) | TGI (MDA-MB-435) | GI50 (PC-3 prostate) | TGI (PC-3 prostate) | GI50 (RPMI-8226 leukemia) | TGI (RPMI-8226 leukemia) | GI50 (SK-MEL-2 melanoma) | TGI (SK-MEL-2 melanoma) | GI50 (SNB-19 CNS) | TGI (SNB-19 CNS) | GI50 (SR leukemia) | TGI (SR leukemia) | GI50 (UO-31 renal) | TGI (UO-31 renal)
1 | CC(C)(C)c1ccc([I+]c2ccc(C(C)(C)C)cc2)cc1 | 1.25 µM | 4 µM | 0.55 µM | 2.46 µM | 1.47 µM | 4.09 µM | 0.948 µM | 3.01 µM | 1.17 µM | 6.05 µM | 0.389 µM | 1.99 µM | 1.51 µM | 3.86 µM | 1.11 µM | 3.24 µM | 0.935 µM | 3.15 µM | 3.62 µM | 14.8 µM
2 | Cn1c(=O)cc2c3c(c(NCCCO)ccc31)C(=O)c1ccccc1-2 | 0.491 µM | > 100 µM | 2.98 µM | > 100 µM | 3.13 µM | > 100 µM | 3.47 µM | > 100 µM | 3 µM | > 100 µM | 2.89 µM | > 100 µM | 6.85 µM | > 100 µM | 4.46 µM | > 100 µM | 0.694 µM | 13.4 µM | 1.09 µM | > 100 µM
3 | O=C1Nc2ccccc2C1Cc1ccccc1 (centres undefined) |  | > 100 µM |  | > 100 µM |  | > 100 µM |  | > 100 µM |  | > 100 µM |  | > 100 µM |  | > 100 µM |  | > 100 µM |  | > 100 µM |  | > 100 µM
4 | COCCOC(=O)C1=C(C)NC2=C(C(=O)CC(c3ccccc3OC)C2)C1c1cccc(O)c1 (centres undefined) | 12.8 µM | 35.4 µM | 3.2 µM | 36 µM | 11.8 µM | 39.5 µM | 5.31 µM | 25.4 µM | 8.15 µM | > 95.2 µM | 4.01 µM | 31.4 µM | 10.1 µM | 26.7 µM | 16 µM | > 100 µM | 8.76 µM | > 59.6 µM | 3.62 µM | 45.8 µM
5 | CN1C(=O)CNC(=O)[C@H](NC(=O)c2nc3ccccc3cc2O)CSSC[C@H]1C(=O)NCCc1nc2ccccc2cc1O | 2.05 µM | 57.6 µM | 1.22 µM | 5.1 µM | 1.03 µM | 35.4 µM | 2.5 µM | 35.8 µM | 18.9 µM | > 70.4 µM | 14.5 µM | 62.3 µM | 2.57 µM | 8.47 µM | 33.5 µM | > 100 µM | 0.387 µM | 1.96 µM | 13.7 µM | 46.1 µM
6 | CCN(CC)c1ccc2c(c1)Oc1nc(N)c(C#N)c(N)c1C2Sc1ccc(SC)cc1 (centres undefined) | 1.46 µM | 2.81 µM | 1.97 µM | 5.15 µM | 1.74 µM | 3.47 µM | 1.86 µM | 3.58 µM | 1.41 µM | 2.81 µM | 2.5 µM | 6.56 µM | 2.48 µM | 5.51 µM | 1.52 µM | 2.9 µM | 0.436 µM | 3.87 µM | 1.51 µM | 2.84 µM
7 | O=C1c2ccccc2C(=O)N1c1ccc(S(=O)(=O)Nc2ncccn2)cc1 | > 100 µM | > 100 µM | > 100 µM | > 100 µM | > 100 µM | > 100 µM | > 100 µM | > 100 µM | > 100 µM | > 100 µM | > 100 µM | > 100 µM | > 100 µM | > 100 µM | > 100 µM | > 100 µM | > 100 µM | > 100 µM | > 100 µM | > 100 µM
8 | CCc1c2c(nc3cc4c(cc13)OCO4)-c1cc3c(c(=O)n1C2)COC(=O)[C@@]3(CC)OC(=O)CN | 0.0214 µM | 0.0666 µM | < 0.01 µM | < 0.01 µM | < 0.01 µM | < 0.0247 µM | < 0.01 µM | 1.23 µM | < 0.01 µM | > 35.5 µM | < 0.01 µM | 0.154 µM | 0.0954 µM | 0.998 µM | < 0.01 µM |  | < 0.01 µM | < 0.0389 µM | < 0.01 µM | 0.0794 µM
